Measured values: patent US10724099B2, “Multiplex methods to assay mixed cell populations simultaneously” (The Broad Institute, Inc., priority 2012, dated 2020)

Assays:
[1] = target: T1, AURKA (Homo sapiens, UniProt O14965); test: DiscoveRx KinomeScan binding
T1 construct: purchased DiscoveRx (KINOMEscan scanEDGE panel)

[2] = target: T2, EPHA2 (Homo sapiens, UniProt P29317); test: DiscoveRx KinomeScan binding
T2 construct: purchased DiscoveRx scanEDGE panel

[3] = target: T3, CDK2 (Homo sapiens, UniProt P24941); test: DiscoveRx KinomeScan binding
T3 construct: purchased DiscoveRx (KINOMEscan scanEDGE panel)

[4] = target: T4, ADCK3 (Homo sapiens, UniProt Q8NI60); test: DiscoveRx KinomeScan binding; settings: Entrez CABC1
T4 construct: purchased DiscoveRx (KINOMEscan scanEDGE panel)

[5] = target: T5, KIT(D816V) (Homo sapiens, UniProt P10721, D816V); test: DiscoveRx KinomeScan binding
T5 construct: purchased DiscoveRx scanEDGE panel (KinomeScan)

[6] = target: T6, BMPR2 (Homo sapiens, UniProt Q13873); test: DiscoveRx KinomeScan binding
T6 construct: purchased DiscoveRx (KINOMEscan scanEDGE panel)

[7] = target: T7, SNARK (Homo sapiens, UniProt Q9H093); test: DiscoveRx KinomeScan binding; settings: Entrez NUAK2
T7 construct: purchased DiscoveRx scanEDGE panel

[8] = target: T8, PDPK1 (Homo sapiens, UniProt O15530); test: DiscoveRx KinomeScan binding
T8 construct: purchased DiscoveRx scanEDGE panel (KinomeScan)

[9] = target: T9, DCAMKL1 (Homo sapiens, UniProt O15075); test: DiscoveRx KinomeScan binding; settings: Entrez DCLK1
T9 construct: purchased DiscoveRx scanEDGE panel

[10] = target: T10, TYK2(JH1domain---catalytic) (Homo sapiens, UniProt P29597); test: DiscoveRx KinomeScan binding
T10 construct: TYK2(JH1domain---catalytic); purchased DiscoveRx scanEDGE panel

[11] = target: T11, EGFR (Homo sapiens, UniProt P00533); test: DiscoveRx KinomeScan binding
T11 construct: purchased DiscoveRx scanEDGE panel

[12] = target: T12, FGFR3 (Homo sapiens, UniProt P22607); test: DiscoveRx KinomeScan binding
T12 construct: purchased DiscoveRx scanEDGE panel

[13] = target: T13, PIM2 (Homo sapiens, UniProt Q9P1W9); test: DiscoveRx KinomeScan binding
T13 construct: purchased DiscoveRx scanEDGE panel

[14] = target: T14, IKK---alpha (Homo sapiens, UniProt O15111); test: DiscoveRx KinomeScan binding; settings: Entrez CHUK
T14 construct: purchased DiscoveRx scanEDGE panel

[15] = target: T15, TIE2 (Homo sapiens, UniProt Q02763); test: DiscoveRx KinomeScan binding; settings: Entrez TEK
T15 construct: purchased DiscoveRx scanEDGE panel

[16] = target: T16, PIK3CA (Homo sapiens, UniProt P42336); test: DiscoveRx KinomeScan binding
T16 construct: purchased DiscoveRx scanEDGE panel

[17] = target: T17, full-length human aurora-B (Homo sapiens, UniProt Q96GD4); test: In vitro kinase assay (EMD Millipore KinaseProfiler); assay type: biochemical; settings: 10 μM γ-33P-ATP, 30 μM AKRRRLSSLRA, 8 doses in duplicate
T17 construct: purchased EMD Millipore KinaseProfiler service
Protocol: (§1) In vitro kinase inhibition assays were then performed as follows. Incorporation of radioactivity from 10 μM γ-^33P-ATP was measured across 8 doses in duplicate by the EMD Millipore KinaseProfiler service (Billerica, Mass.) under published standard conditions with […]. Full-length human aurora-A was assayed with 200 μM LRRASLG (Kemptide); full-length human aurora-B with 30 μM […] (SEQ ID NO:5); and full-length human aurora-C with 30 μM […] (SEQ ID NO:6). IC50 values were modeled using least-squares and variable slope with Prism 6.0 software (GraphPad, San Diego, Calif.).

[18] = target: T18, full-length human aurora-C (Homo sapiens, UniProt Q9UQB9); test: as above; assay type: biochemical; settings: 10 μM γ-33P-ATP, 30 μM AKRRRLSSLRA, 8 doses in duplicate
T18 construct: purchased EMD Millipore KinaseProfiler service
Protocol: as §1

[19] = target: T19, ROCK2 (Homo sapiens, UniProt O75116); test: DiscoveRx KinomeScan binding
T19 construct: purchased DiscoveRx scanEDGE panel

[20] = target: T20, JAK3(JH1domain---catalytic) (Homo sapiens, UniProt P52333); test: DiscoveRx KinomeScan binding
T20 construct: JAK3(JH1domain---catalytic); purchased DiscoveRx scanEDGE panel

[21] = target: T21, IGF1R (Homo sapiens, UniProt P08069); test: DiscoveRx KinomeScan binding
T21 construct: purchased DiscoveRx scanEDGE panel

[22] = target: T22, JAK2(JH1domain---catalytic) (Homo sapiens, UniProt O60674); test: DiscoveRx KinomeScan binding
T22 construct: JAK2(JH1domain---catalytic); purchased DiscoveRx scanEDGE panel

[23] = target: T23, PAK4 (Homo sapiens, UniProt O96013); test: DiscoveRx KinomeScan binding
T23 construct: purchased DiscoveRx scanEDGE panel (KinomeScan)

[24] = target: T24, AXL (Homo sapiens, UniProt P30530); test: DiscoveRx KinomeScan binding
T24 construct: purchased DiscoveRx (KINOMEscan scanEDGE panel)

[25] = target: T25, BRAF(V600E) (Homo sapiens, UniProt P15056, V600E); test: DiscoveRx KinomeScan binding
T25 construct: purchased DiscoveRx (KINOMEscan scanEDGE panel)

[26] = target: T26, RIOK2 (Homo sapiens, UniProt Q9BVS4); test: DiscoveRx KinomeScan binding
T26 construct: purchased DiscoveRx scanEDGE panel

[27] = system: HCT-116 cells; test: Western blot phosphoserine 10-histone H3; assay type: cell-based; settings: 10 μM
Protocol: Finally, HCT-116 cells were treated with 10 μM of DMSO, barasertib, GSK1070916, MLN8054, BRD-7880, or tozasertib. Cells lysates were probed on Western blot using antibodies (diluted 1:1000) to histone H3 (Abcam cat. no. 24834), phosphoserine 10-histone H3 (Cell Signaling Technology cat no. 3377SS), aurora kinase B (Millipore cat. no. 04-1036), or beta-actin (Santa Cruz Biotechnology cat. no. sc-47778) and detected using a LI-COR Odyssey analyzer.

[28] = target: T27, MLK1 (Homo sapiens, UniProt P80192); test: DiscoveRx KinomeScan binding; settings: Entrez MAP3K9
T27 construct: purchased DiscoveRx scanEDGE panel (KinomeScan)

[29] = target: T28, AURKB (Homo sapiens, UniProt Q96GD4); test: DiscoveRx KinomeScan binding
T28 construct: purchased DiscoveRx (KINOMEscan scanEDGE panel)

[30] = target: T29, ABL1---nonphosphorylated (Homo sapiens, UniProt P00519); test: DiscoveRx KinomeScan binding; settings: Entrez ABL1
T29 construct: purchased DiscoveRx (KINOMEscan scanEDGE panel)

[31] = target: T30, IKK---beta (Homo sapiens, UniProt O14920); test: DiscoveRx KinomeScan binding; settings: Entrez IKBKB
T30 construct: purchased DiscoveRx scanEDGE panel

[32] = target: T31, PLK3 (Homo sapiens, UniProt Q9H4B4); test: DiscoveRx KinomeScan binding
T31 construct: purchased DiscoveRx scanEDGE panel

T28 sequence (Q96GD4 whole entry): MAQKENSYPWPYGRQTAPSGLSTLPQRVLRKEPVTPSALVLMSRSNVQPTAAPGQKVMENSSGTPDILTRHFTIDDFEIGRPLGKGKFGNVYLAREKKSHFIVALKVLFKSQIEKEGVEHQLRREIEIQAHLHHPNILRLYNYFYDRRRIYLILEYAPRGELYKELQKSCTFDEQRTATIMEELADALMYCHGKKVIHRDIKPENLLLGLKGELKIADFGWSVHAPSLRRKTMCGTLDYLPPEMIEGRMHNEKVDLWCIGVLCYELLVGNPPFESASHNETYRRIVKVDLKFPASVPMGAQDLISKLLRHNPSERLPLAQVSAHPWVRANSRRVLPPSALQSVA
T1 sequence (O14965 whole entry): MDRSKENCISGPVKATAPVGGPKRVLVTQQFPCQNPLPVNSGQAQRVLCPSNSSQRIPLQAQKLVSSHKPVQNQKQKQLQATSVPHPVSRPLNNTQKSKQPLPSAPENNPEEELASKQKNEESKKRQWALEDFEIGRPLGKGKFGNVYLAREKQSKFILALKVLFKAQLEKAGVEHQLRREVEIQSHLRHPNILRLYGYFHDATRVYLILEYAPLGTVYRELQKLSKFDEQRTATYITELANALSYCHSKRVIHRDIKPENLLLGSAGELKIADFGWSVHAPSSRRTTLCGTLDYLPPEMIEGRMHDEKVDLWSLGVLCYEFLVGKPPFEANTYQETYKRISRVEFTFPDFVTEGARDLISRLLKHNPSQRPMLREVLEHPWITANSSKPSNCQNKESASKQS
T25 sequence (P15056 whole entry V600E): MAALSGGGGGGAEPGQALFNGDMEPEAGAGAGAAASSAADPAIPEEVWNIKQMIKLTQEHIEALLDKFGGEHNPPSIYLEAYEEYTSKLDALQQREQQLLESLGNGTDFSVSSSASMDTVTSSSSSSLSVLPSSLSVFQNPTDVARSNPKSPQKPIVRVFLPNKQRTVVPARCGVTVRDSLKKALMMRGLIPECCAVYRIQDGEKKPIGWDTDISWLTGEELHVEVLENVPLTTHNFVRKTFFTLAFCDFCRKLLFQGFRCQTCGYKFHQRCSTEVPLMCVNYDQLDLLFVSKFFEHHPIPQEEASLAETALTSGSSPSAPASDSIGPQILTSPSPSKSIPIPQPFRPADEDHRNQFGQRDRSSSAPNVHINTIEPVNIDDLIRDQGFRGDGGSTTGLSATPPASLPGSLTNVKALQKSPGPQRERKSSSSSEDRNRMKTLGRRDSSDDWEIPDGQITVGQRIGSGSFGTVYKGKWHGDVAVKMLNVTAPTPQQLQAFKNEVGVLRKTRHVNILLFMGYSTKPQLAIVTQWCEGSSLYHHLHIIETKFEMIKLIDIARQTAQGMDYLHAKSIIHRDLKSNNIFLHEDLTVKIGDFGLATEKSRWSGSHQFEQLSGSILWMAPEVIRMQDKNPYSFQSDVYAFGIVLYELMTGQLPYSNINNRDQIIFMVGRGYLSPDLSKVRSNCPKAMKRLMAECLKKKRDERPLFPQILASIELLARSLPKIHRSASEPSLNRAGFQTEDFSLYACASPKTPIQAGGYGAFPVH
T14 sequence (O15111 whole entry): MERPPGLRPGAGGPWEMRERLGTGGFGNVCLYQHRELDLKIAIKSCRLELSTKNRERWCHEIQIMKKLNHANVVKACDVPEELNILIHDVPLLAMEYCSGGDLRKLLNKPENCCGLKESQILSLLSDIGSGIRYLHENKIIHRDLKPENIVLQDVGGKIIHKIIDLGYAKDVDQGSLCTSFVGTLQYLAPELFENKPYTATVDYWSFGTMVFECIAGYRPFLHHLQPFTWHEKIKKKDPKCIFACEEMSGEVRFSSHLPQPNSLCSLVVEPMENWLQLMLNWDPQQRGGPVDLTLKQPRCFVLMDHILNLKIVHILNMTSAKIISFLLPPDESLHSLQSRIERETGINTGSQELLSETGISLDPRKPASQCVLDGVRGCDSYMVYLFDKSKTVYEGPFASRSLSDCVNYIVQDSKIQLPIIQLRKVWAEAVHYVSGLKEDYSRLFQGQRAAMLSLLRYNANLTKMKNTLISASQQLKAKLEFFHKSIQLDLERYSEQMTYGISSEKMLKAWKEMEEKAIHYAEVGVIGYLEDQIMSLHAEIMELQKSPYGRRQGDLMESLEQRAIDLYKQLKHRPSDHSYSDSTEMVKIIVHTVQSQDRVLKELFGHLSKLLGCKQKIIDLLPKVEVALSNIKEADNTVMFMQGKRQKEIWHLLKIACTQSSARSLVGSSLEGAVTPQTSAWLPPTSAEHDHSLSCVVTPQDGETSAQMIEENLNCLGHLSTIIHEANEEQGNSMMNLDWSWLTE
T26 sequence (Q9BVS4 whole entry): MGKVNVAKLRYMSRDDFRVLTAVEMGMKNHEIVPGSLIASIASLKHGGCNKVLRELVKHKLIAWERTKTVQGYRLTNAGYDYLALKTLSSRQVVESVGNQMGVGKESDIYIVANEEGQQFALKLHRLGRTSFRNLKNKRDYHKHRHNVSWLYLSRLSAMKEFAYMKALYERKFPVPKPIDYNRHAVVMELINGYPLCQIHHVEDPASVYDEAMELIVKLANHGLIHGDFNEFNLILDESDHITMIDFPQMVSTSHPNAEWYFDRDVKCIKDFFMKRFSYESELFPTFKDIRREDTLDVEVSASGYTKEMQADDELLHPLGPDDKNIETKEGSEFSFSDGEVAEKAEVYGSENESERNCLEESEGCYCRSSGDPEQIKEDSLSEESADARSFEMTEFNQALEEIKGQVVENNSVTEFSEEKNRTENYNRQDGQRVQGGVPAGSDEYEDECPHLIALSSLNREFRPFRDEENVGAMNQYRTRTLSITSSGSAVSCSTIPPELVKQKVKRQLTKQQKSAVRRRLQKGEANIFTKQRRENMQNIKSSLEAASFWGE
T5 sequence (P10721 26-976 D816V): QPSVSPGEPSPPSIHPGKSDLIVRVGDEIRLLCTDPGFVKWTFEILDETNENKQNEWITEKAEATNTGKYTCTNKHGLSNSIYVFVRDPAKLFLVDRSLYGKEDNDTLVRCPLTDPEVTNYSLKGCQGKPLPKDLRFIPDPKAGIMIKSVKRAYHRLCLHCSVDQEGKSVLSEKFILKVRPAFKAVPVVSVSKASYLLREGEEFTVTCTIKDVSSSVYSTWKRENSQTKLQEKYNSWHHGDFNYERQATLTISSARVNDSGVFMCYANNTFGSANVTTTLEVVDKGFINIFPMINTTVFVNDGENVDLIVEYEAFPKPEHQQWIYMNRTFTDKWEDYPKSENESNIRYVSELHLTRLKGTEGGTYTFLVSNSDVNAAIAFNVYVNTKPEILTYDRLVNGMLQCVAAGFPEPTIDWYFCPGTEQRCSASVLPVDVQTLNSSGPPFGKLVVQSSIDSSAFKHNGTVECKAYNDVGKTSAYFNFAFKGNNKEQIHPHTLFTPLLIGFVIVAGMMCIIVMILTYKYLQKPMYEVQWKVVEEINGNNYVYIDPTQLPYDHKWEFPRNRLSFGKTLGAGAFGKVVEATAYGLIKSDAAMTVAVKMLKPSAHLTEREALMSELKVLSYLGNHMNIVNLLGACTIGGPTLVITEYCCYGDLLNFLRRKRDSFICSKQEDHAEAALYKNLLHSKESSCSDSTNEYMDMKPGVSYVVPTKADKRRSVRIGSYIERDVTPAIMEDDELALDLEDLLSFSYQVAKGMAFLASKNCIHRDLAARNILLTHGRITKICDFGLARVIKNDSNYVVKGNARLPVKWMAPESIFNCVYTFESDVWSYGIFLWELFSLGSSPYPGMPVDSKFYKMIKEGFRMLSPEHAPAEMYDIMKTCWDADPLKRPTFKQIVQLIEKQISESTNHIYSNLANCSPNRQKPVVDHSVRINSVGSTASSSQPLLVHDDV
T30 sequence (O14920 whole entry): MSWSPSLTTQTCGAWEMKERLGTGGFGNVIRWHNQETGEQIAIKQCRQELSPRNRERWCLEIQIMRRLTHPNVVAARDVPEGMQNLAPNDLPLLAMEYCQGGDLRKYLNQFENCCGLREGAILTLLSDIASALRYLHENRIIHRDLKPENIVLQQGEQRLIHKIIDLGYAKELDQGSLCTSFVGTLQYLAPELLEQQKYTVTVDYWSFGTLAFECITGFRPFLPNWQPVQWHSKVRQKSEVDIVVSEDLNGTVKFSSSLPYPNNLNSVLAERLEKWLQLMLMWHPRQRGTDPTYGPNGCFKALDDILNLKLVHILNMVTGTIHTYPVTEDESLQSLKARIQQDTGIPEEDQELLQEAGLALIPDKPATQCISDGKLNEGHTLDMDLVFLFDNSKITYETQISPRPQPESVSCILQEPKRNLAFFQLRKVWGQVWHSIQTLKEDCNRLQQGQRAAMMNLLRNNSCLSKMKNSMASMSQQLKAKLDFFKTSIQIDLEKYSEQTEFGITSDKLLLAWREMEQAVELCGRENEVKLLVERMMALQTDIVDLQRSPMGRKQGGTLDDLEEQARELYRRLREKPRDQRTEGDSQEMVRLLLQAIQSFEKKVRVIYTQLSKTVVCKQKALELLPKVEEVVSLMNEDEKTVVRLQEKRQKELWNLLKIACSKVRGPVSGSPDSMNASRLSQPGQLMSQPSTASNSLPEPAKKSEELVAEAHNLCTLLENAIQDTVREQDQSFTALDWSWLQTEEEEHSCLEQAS
T13 sequence (Q9P1W9 whole entry): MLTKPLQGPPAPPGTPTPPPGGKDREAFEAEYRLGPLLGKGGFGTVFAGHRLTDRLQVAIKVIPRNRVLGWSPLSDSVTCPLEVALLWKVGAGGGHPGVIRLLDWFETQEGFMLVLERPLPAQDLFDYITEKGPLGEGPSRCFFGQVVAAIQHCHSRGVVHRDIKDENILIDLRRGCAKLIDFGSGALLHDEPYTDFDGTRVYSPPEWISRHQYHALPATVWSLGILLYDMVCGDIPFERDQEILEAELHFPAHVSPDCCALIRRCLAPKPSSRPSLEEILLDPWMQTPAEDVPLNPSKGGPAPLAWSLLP
T17 sequence (Q96GD4 whole entry): as the sequence (Q96GD4 whole entry) above

SMILES: COc1ccc(NC(=O)Nc2ccc3c(c2)C(=O)N([C@@H](C)CO)C[C@H](C)[C@H](CN(C)Cc2ccc4c(c2)OCO4)O3)cc1 [BRD-7880]
- binding to aurora kinase A [1]: 25 % of control
- Percent Control ([1]; AURKA): 22%
- Percent Control [2]: 86%
- Percent Control [3]: 100%
- Percent Control [4]: 84%
- Percent Control [5]: 72%
- Percent Control [6]: 100%
- Percent Control [7]: 72%
- Percent Control [8]: 48%
- Percent Control [9]: 37%
- Percent Control [10]: 87%
- Percent Control [11]: 66%
- Percent Control [12]: 56%
- Percent Control [13]: 85%
- Percent Control [14]: 58%
- Percent Control [15]: 97%
- Percent Control [16]: 74%
- IC50 [17]: 7 nM
- IC50 [18]: 12 nM
- Percent Control [19]: 100%
- Percent Control [20]: 66%
- Percent Control [21]: 88%
- Percent Control [22]: 98%
- Percent Control [23]: 100%
- Percent Control [24]: 84%
- Percent Control [25]: 65%
- Percent Control [26]: 38%
- phosphorylation of serine 10 on histone H3 [27]: decrease phosphorylation of serine 10 on histone H3
- Percent Control [28]: 91%
- binding to aurora kinase B [29]: 0.5 % of control
- Percent Control ([29]; AURKB): 0.5%
- Percent Control [30]: 100%
- Percent Control [31]: 68%
- Percent Control [32]: 48%
